16 compounds from ChEMBL document CHEMBL1147987, “Novel aminoethylbiphenyls as 5-HT7 receptor ligands” (Bioorg Med Chem Lett, 2007) can be followed below.

Each structure is given as a SMILES string.

Test [1] concerns the target T1, 5-hydroxytryptamine receptor 7 (Homo sapiens, UniProt P34969). Kind of test: Displacement of [3H]LSD from human 5HT7 in sf9 cells at 0.01 uM. Type of test: cell-based.
For test [2], the target named is T1, 5-hydroxytryptamine receptor 7. Kind of test: Displacement of [3H]LSD from human 5HT7 in sf9 cells at 1 uM. Type of test: cell-based.
Test [3] has as its target T2, 5-hydroxytryptamine receptor 1A (Rattus norvegicus) (UniProt P19327).
T2 sequence (whole entry): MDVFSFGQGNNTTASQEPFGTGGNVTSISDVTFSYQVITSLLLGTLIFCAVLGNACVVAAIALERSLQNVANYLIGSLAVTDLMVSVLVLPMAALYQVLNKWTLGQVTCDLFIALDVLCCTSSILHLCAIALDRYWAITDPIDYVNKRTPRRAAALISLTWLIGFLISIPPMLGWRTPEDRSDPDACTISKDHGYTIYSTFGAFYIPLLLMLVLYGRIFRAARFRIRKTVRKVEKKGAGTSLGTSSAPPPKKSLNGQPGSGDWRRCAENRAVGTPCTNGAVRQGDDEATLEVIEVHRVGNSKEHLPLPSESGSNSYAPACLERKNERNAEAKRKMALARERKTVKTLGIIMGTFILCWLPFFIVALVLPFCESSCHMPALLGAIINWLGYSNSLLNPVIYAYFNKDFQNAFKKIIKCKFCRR
The test can be described thus: Binding affinity to rat 5HT1A at 1 uM.

The target in test [4] is T2, 5-hydroxytryptamine receptor 1A (Rattus norvegicus). Kind of test: Binding affinity to rat 5HT1A at 0.01 uM.
Test [5] concerns the target T3, 5-hydroxytryptamine receptor 1A (Rattus norvegicus, UniProt P19327).
T3 sequence (P19327 whole entry): T2 sequence (whole entry)
The test can be described thus: Binding affinity to rat 5HT1A.

For test [6], the target named is T1, 5-hydroxytryptamine receptor 7. Kind of test: Displacement of [3H]LSD from human 5HT7 in sf9 cells. The format is cell-based.
Test [7] in a line: Selectivity ratio of rat 5HT1A to human 5HT7.
For test [8], the target named is 5-hydroxytryptamine receptor 7 (Rattus norvegicus) (UniProt P32305). Kind of test: Antagonist activity at 5HT7 receptor stimulated aldosterone secretion from rat adrenal cortex. The format is functional, tissue-based.
Sequence of 5-hydroxytryptamine receptor 7 (Rattus norvegicus) (P32305 whole entry): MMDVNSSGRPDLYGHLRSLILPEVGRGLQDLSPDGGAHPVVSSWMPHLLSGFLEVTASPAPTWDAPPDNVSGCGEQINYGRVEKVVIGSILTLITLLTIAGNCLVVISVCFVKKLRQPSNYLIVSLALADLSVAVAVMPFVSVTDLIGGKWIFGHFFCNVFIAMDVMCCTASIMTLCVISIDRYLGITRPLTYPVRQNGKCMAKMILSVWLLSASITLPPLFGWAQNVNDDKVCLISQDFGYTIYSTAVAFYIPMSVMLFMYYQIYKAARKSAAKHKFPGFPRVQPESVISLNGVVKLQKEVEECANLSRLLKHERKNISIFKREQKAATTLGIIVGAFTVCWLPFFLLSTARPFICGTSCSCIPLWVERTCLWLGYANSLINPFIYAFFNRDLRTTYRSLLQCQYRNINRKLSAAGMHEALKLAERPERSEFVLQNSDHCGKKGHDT

T1 sequence (P34969 whole entry): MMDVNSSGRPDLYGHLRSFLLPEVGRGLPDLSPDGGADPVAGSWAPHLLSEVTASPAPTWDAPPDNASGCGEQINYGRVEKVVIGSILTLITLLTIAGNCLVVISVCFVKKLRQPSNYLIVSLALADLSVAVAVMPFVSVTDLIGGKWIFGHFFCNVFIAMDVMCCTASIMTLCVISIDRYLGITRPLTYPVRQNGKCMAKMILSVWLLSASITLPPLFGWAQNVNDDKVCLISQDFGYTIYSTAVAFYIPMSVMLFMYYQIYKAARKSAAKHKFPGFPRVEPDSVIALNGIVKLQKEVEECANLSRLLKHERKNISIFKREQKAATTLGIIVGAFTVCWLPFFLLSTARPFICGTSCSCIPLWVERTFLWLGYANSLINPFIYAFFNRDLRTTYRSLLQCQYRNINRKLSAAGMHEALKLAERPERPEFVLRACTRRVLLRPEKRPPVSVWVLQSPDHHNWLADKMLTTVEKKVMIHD

Regarding `Cc1cc(C)c(-n2ccc(CCN(C)C)c2)c(C)c1`, the inhibition in test [1] came out at 3%; in test [2] it was 56%; in test [3], 20%; in test [4], 0%.

As for `COc1ccc(-c2cccc(CCN(C)C)c2)cc1OC`, the inhibition in test [1] was 0%; in test [2] it was 38%; in test [3], 52%; in test [4], 12%.

With `COc1ccccc1-c1cccc(CCN(C)C)c1`, the inhibition was 23% in test [1], 69% in test [2], 48% in test [3] and 12% in test [4]. In addition, the values for the Ki in test [5] and in test [6] were 0.531 µM and 0.0084 µM, respectively.

Consider `Cc1ccccc1-n1ccc(CCN)c1`, for which the inhibition in test [1] was 5%; in test [2] it was 62%; in test [3], 16%; in test [4] it was 0%.

Take `Cc1cccc(-n2ccc(CCN)c2)c1C`: the inhibition in test [1] was found to be 25%; in test [2], 48%; in test [3] it was 17%; in test [4], 0%.

In the case of `Cc1cccc(C)c1-c1cccc(CCN(C)C)c1`, the inhibition in test [1] worked out at 73%; in test [2], 93%; in test [3], 33%; in test [4], 6%. Also, the values for the Ki in test [5] and in test [6] were 2.25 µM and 0.0062 µM, respectively. Moreover, the Ratio Ki in test [7] came out at 60.

For the compound `Cc1ccccc1-c1cccc(CCN)c1`, the inhibition is 71% in test [1], 92% in test [2], 37% in test [3] and 0% in test [4]. Besides, the figures for the Ki in test [5] and in test [6] were 1.47 µM and 0.0075 µM, respectively.

As for `CN(C)CCc1cccc(-c2cccs2)c1`, the inhibition worked out at 12% in test [1], 75% in test [2], 63% in test [3] and 6% in test [4].

Consider `COc1cccc(OC)c1-c1cccc(CCN(C)C)c1`, for which the inhibition in test [1] amounted to 50%; in test [2], 100%; in test [3], 18%; in test [4], 3%. Further, the figures for the Ki in test [5] and in test [6] were 4.83 µM and 0.0086 µM, respectively. Besides, the Ratio Ki in test [7] was found to be 60. Besides, the Activity result in test [8] (filed as partial agonist) was “Partial agonist”.

For the compound `Cc1ccccc1-c1cccc(CCN(C)C)c1`, the inhibition turned out to be 72% in test [1], 81% in test [2], 85% in test [3] and 1% in test [4]. Moreover, the figures for the Ki in test [5] and in test [6] were 0.443 µM and 0.0076 µM, respectively. The pKb in test [8] worked out at 7.03.

In the case of `Cc1ccccc1-n1ccc(CCN(C)C)c1`, the inhibition worked out at 16% in test [1], 87% in test [2], 41% in test [3] and 14% in test [4].

Consider `CN(C)CCc1cccc(-c2ccsc2)c1`, for which the inhibition in test [1] was found to be 12%; in test [2] it was 87%; in test [3], 64%; in test [4], 20%.

For the compound `COc1ccc(-c2cccc(CCN(C)C)c2)cc1`, the inhibition was found to be 9% in test [1], 52% in test [2], 37% in test [3] and 0% in test [4].

With `COc1cccc(OC)c1-c1cccc(CCN2CCOCC2)c1`, the inhibition in test [1] amounted to 0%; in test [2] it was 9%; in test [3] it was 14%; in test [4], 7%.

For `Cc1cc(C)c(-n2ccc(CCN)c2)c(C)c1`, the inhibition in test [1], in test [2], in test [3] and in test [4] was 0% in each case.

Turning to `CN(C)CCc1cccc(-c2ccccc2)c1`, the inhibition in test [1] was determined as 18%; in test [2], 70%; in test [3] it was 18%; in test [4], 2%.
